# In EPA's ToxRefDB 2:
# Counter-ions that a name gives are not always drawn.
# Key:
# mouse [1] = conditions: Subchronic oral toxicity in rodents, b6c3f1, Water, dose end: 14 week, group: systemic
# rat [2] = conditions: Subchronic oral toxicity in rodents, fischer, Water, dose end: 14 week, group: systemic
# mouse [3] = conditions: Subchronic oral toxicity in rodents, b6c3f1, Gavage/Intubation, dose end: 13 week, group: systemic, systemic / hematology / methemoglobin / methemoglobin + systemic / pathology microscopic / bone marrow / hemosiderosis + systemic / …
# rat [4] = conditions: Subchronic oral toxicity in rodents, fischer, Gavage/Intubation, dose end: 13 week, group: systemic, systemic / hematology / anemia / anemia - macrocytic + systemic / hematology / erythrocyte (rbc) count differential / erythrocyte (rbc) + …
# rat [5] = conditions: Prenatal developmental toxicity study; other; Inhalation; Nose-Only; dose end: 16 GD; group: maternal; systemic / in life observation / body weight / body weight gain + systemic / in life observation / food consumption / food consumption
# rat [6] = conditions: Prenatal developmental toxicity study, other, Oral, Gavage/Intubation, dose end: 15 GD
# mouse [7] = conditions: Prenatal developmental toxicity study, cd1, Oral, Gavage/Intubation, dose end: 15 GD
# mouse [8] = conditions: Carcinogenicity; b6c3f1; Oral; Feed; dose end: 103 week; group: systemic; systemic / in life observation / body weight / body weight
# rat [9] = conditions: Combined chronic toxicity/carcinogenicity, fischer, Oral, Feed, dose end: 103 week, group: systemic
# rat [10] = conditions: Carcinogenicity; fischer; Oral; Feed; dose end: 103 week; group: systemic; systemic / pathology microscopic / pituitary gland / adenoma + systemic / pathology microscopic / pituitary gland / adenoma/carcinoma …
# mouse [11] = conditions: Combined chronic toxicity/carcinogenicity; b6c3f1; Oral; Feed; dose end: 103 week; group: systemic; systemic / in life observation / body weight / body weight
# dog = conditions: Chronic toxicity; beagle; Oral; Feed; dose end: 12 month; group: systemic; systemic / in life observation / body weight / body weight + systemic / in life observation / clinical signs / inappetence + systemic / in …
# rat [12] = conditions: Subchronic oral toxicity in rodents, fischer, Feed, dose end: 13 week, group: systemic, systemic / pathology microscopic / liver / vacuolization
# mouse [13] = conditions: Subchronic oral toxicity in rodents, b6c3f1, Feed, dose end: 13 week, group: systemic, systemic / in life observation / body weight / body weight
# mouse [14] = conditions: Subchronic oral toxicity in rodents, Feed, dose end: 28 day, group: systemic
# rat [15] = conditions: Multigenerational reproductive toxicity study, sprague dawley, Oral, Feed, dose end: 2 generation
# mouse [16] = conditions: Subchronic oral toxicity in rodents, cd1, Feed, dose end: 13 week, group: systemic, systemic / clinical chemistry / alkaline phosphatase (alp/alk) / alkaline phosphatase (alp/alk) + systemic / pathology microscopic / liver…
# rat [17] = conditions: Combined chronic toxicity/carcinogenicity; sprague dawley; Oral; Feed; dose end: 104 week; group: systemic; systemic / pathology microscopic / lung / foam cell aggregation + systemic / hematology / erythrocyte (rbc) count differential / erythrocyte…
# rabbit = conditions: Prenatal developmental toxicity study, new zealand white, Oral, Gavage/Intubation, dose end: 18 GD, group: maternal
# rat [18] = conditions: Subchronic oral toxicity in rodents, fischer, Feed, dose end: 13 week, group: systemic
# rat [19] = conditions: Carcinogenicity, fischer, Oral, Feed, dose end: 104 week, group: systemic
# mouse [20] = conditions: Subchronic oral toxicity in rodents, b6c3f1, Feed, dose end: 13 week, group: systemic, systemic / pathology microscopic / kidney / mineralization + systemic / in life observation / body weight / body weight gain
# mouse [21] = conditions: Carcinogenicity; b6c3f1; Oral; Feed; dose end: 103 week; group: systemic; systemic / in life observation / body weight / body weight + systemic / pathology microscopic / kidney / mineralization + systemic / …
# [22] = systemic / organ weight / kidney / absolute + systemic / organ weight / kidney / relative to body weight + systemic / pathology microscopic…
# [23] = systemic / organ weight / liver / absolute + systemic / organ weight / liver / relative to body weight + systemic / pathology microscopic / …
# [24] = systemic / hematology / erythrocyte (rbc) count differential / erythrocyte (rbc) + systemic / hematology / hematocrit (hct) / hematocrit (…
# [25] = systemic / hematology / hematocrit (hct) / hematocrit (hct) + systemic / hematology / hemoglobin (hgb) / hemoglobin (hgb) + systemic / organ…
# [26] = group: developmental, systemic / in life observation / body weight / fetal weight
# [27] = group: maternal, systemic / in life observation / body weight / body weight gain + systemic / in life observation / clinical signs / fur (altered appearance…
# [28] = group: maternal, systemic / in life observation / body weight / dam weight + systemic / in life observation / clinical signs / abnormal respiratory sounds + …
# [29] = systemic / pathology microscopic / liver / fatty change
# [30] = systemic / pathology microscopic / pituitary gland / adenoma + systemic / pathology microscopic / adrenal gland / pheochromocytoma nos + …
# [31] = systemic / pathology microscopic / liver / infiltration cellular
# [32] = group: maternal, systemic / in life observation / body weight / body weight gain
# [33] = group: offspring, developmental / offspring survival late / viability index / viability index + systemic / in life observation / body weight / offspring (pup…
# [34] = group: offspring, systemic / in life observation / body weight / offspring (pup) weight
# [35] = group: parental, systemic / in life observation / body weight / body weight + systemic / in life observation / body weight / body weight gain
# [36] = group: parental, systemic / in life observation / body weight / body weight gain
# [37] = reproductive / offspring survival early / live fetuses / live fetuses
# [38] = systemic / pathology microscopic / kidney / mineralization
# [39] = systemic / in life observation / body weight / body weight + systemic / pathology microscopic / kidney / hyperplasia + systemic / pathology …
# [40] = systemic / pathology microscopic / kidney / hyperplasia + systemic / pathology microscopic / urinary bladder / hyperplasia + systemic / …
structure (smiles),measurement,setting,value
CC(O)CCl (stereo not drawn) [1-Chloro-2-propanol],LOAEL,mouse [1]; [22],340 mg/kg/day
same,NOAEL,mouse [1]; [22],170 mg/kg/day
same,LEL,mouse [1]; [23],7 mg/kg/day
same,NEL,mouse [1]; [23],< 7 mg/kg/day
same,LOAEL,rat [2]; [24],100 mg/kg/day
same,NOAEL,rat [2]; [24],35 mg/kg/day
same,LEL,rat [2]; [25],5 mg/kg/day
same,NEL,rat [2]; [25],< 5 mg/kg/day
Nc1cccc(Cl)c1 [3-Chloroaniline],LEL,mouse [3],10 mg/kg/day
same,LOAEL,mouse [3],40 mg/kg/day
same,NEL,mouse [3],< 10 mg/kg/day
same,NOAEL,mouse [3],20 mg/kg/day
same,LEL,rat [4],10 mg/kg/day
same,LOAEL,rat [4],20 mg/kg/day
same,NEL,rat [4],< 10 mg/kg/day
same,NOAEL,rat [4],10 mg/kg/day
COS(=O)(=O)OC [Dimethyl sulfate],LEL,rat [5],0.7 ppm
same,LOAEL,rat [5],> 1.5 ppm
same,NEL,rat [5],0.1 ppm
same,NOAEL,rat [5],≥ 1.5 ppm
CN(C)[C@@H]1C(=O)C(C(N)=O)=C(O)[C@@]2(O)C(=O)C3=C(O)c4c(O)cccc4[C@@](C)(O)[C@H]3[C@H](O)[C@@H]12.Cl [Oxytetracycline hydrochloride],LEL,rat [6]; [26],1200 mg/kg/day
same,LOAEL,rat [6]; [26],1200 mg/kg/day
same,NEL,rat [6]; [26],< 1200 mg/kg/day
same,NOAEL,rat [6]; [26],< 1200 mg/kg/day
same,LEL,rat [6]; [27],1200 mg/kg/day
same,LOAEL,rat [6]; [27],> 1500 mg/kg/day
same,NEL,rat [6]; [27],< 1200 mg/kg/day
same,NOAEL,rat [6]; [27],≥ 1500 mg/kg/day
same,LEL,mouse [7]; [26],1320 mg/kg/day
same,LOAEL,mouse [7]; [26],> 2100 mg/kg/day
same,NEL,mouse [7]; [26],< 1320 mg/kg/day
same,NOAEL,mouse [7]; [26],≥ 2100 mg/kg/day
same,LEL,"mouse [7]; group: maternal, systemic / in life observation / body weight / dam weight",1670 mg/kg/day
same,LOAEL,mouse [7]; [28],> 2100 mg/kg/day
same,NEL,mouse [7]; [28],1320 mg/kg/day
same,NOAEL,mouse [7]; [28],≥ 2100 mg/kg/day
same,LEL,mouse [8],1370 mg/kg/day
same,LOAEL,mouse [8],> 1370 mg/kg/day
same,NEL,mouse [8],663 mg/kg/day
same,NOAEL,mouse [8],≥ 1370 mg/kg/day
same,LEL,rat [9]; [29],1000 mg/kg/day
same,NEL,rat [9]; [29],< 1000 mg/kg/day
same,LOAEL,rat [9]; [30],> 2000 mg/kg/day
same,NOAEL,rat [9]; [30],≥ 2000 mg/kg/day
same,LEL,rat [10],1250 mg/kg/day
same,LOAEL,rat [10],> 2500 mg/kg/day
same,NEL,rat [10],< 1250 mg/kg/day
same,NOAEL,rat [10],≥ 2500 mg/kg/day
same,LEL,mouse [11],1400 mg/kg/day
same,LOAEL,mouse [11],> 1400 mg/kg/day
same,NEL,mouse [11],650 mg/kg/day
same,NOAEL,mouse [11],≥ 1400 mg/kg/day
same,LEL,dog,125 mg/kg/day
same,LOAEL,dog,125 mg/kg/day
same,NEL,dog,50 mg/kg/day
same,NOAEL,dog,50 mg/kg/day
same,LEL,rat [12],155 mg/kg/day
same,LOAEL,rat [12],> 2500 mg/kg/day
same,NEL,rat [12],< 155 mg/kg/day
same,NOAEL,rat [12],≥ 2500 mg/kg/day
same,LEL,mouse [13],3750 mg/kg/day
same,LOAEL,mouse [13],7500 mg/kg/day
same,NEL,mouse [13],1880 mg/kg/day
same,NOAEL,mouse [13],3750 mg/kg/day
Oc1cc(Cl)ccc1Oc1ccc(Cl)cc1Cl [Triclosan],LOAEL,mouse [14]; systemic / clinical chemistry / alkaline phosphatase (alp/alk) / alkaline phosphatase (alp/alk) + systemic / clinical chemistry / alanine …,136 mg/kg/day
same,LEL,mouse [14]; [31],6.48 mg/kg/day
same,NEL,mouse [14]; [31],< 6.48 mg/kg/day
same,NOAEL,mouse [14]; systemic / pathology microscopic / liver / infiltration cellular + systemic / clinical chemistry / alkaline phosphatase (alp/alk) / alkaline…,6.48 mg/kg/day
same,LEL,rat [15]; [32],150 mg/kg/day
same,LOAEL,rat [15]; [32],> 150 mg/kg/day
same,NEL,rat [15]; [32],50 mg/kg/day
same,NOAEL,rat [15]; [32],≥ 150 mg/kg/day
same,LOAEL,rat [15]; [33],150 mg/kg/day
same,NOAEL,rat [15]; [33],50 mg/kg/day
same,LEL,rat [15]; [34],15 mg/kg/day
same,NEL,rat [15]; [34],< 15 mg/kg/day
same,LOAEL,rat [15]; [35],150 mg/kg/day
same,NOAEL,rat [15]; [35],50 mg/kg/day
same,LEL,rat [15]; [36],15 mg/kg/day
same,NEL,rat [15]; [36],< 15 mg/kg/day
same,LEL,mouse [16],25 mg/kg/day
same,LOAEL,mouse [16],25 mg/kg/day
same,NEL,mouse [16],< 25 mg/kg/day
same,NOAEL,mouse [16],< 25 mg/kg/day
same,LEL,rat [17],15 mg/kg/day
same,LOAEL,rat [17],15 mg/kg/day
same,NEL,rat [17],< 15 mg/kg/day
same,NOAEL,rat [17],< 15 mg/kg/day
same,LEL,rabbit; [37],15 mg/kg/day
same,NEL,rabbit; [37],< 15 mg/kg/day
same,LOAEL,rabbit; systemic / in life observation / body weight / body weight + systemic / in life observation / food consumption / food consumption,150 mg/kg/day
same,NOAEL,rabbit; systemic / in life observation / body weight / body weight + systemic / in life observation / food consumption / food consumption + …,50 mg/kg/day
NCCCCCCCCCCC(=O)O [11-Aminoundecanoic acid],LOAEL,rat [18]; systemic / pathology microscopic / kidney / hyperplasia + systemic / in life observation / body weight / body weight gain,900 mg/kg/day
same,NOAEL,rat [18]; systemic / pathology microscopic / kidney / hyperplasia + systemic / pathology microscopic / kidney / mineralization,750 mg/kg/day
same,LEL,rat [18]; [38],450 mg/kg/day
same,NEL,rat [18]; [38],< 450 mg/kg/day
same,LOAEL,rat [19]; [39],750 mg/kg/day
same,NOAEL,rat [19]; [39],375 mg/kg/day
same,LEL,rat [19]; [40],375 mg/kg/day
same,NEL,rat [19]; [40],< 375 mg/kg/day
same,LEL,mouse [20],2250 mg/kg/day
same,LOAEL,mouse [20],2250 mg/kg/day
same,NEL,mouse [20],1800 mg/kg/day
same,NOAEL,mouse [20],1800 mg/kg/day
same,LEL,mouse [21],1120 mg/kg/day
same,LOAEL,mouse [21],1120 mg/kg/day
same,NEL,mouse [21],< 1120 mg/kg/day
same,NOAEL,mouse [21],< 1120 mg/kg/day
